{"source": "patent US20230310376A1", "about": "“PROPHYLACTIC AND/OR THERAPEUTIC AGENT FOR IDIOPATHIC PULMONARY FIBROSIS” (ONO PHARMACEUTICAL CO., LTD., priority 2020, published 2023)", "key": {"[1]": {"system": "bleomycin-induced pulmonary fibrosis model, wild-type male C57BL/6N mice", "experiment": "Bleomycin-induced pulmonary fibrosis model, wild-type C57BL/6N mice", "type": "in vivo, mouse", "conditions": "transpulmonary bleomycin, 3 mg/kg oral two times/day to day 21, vs medium-administered group", "method": "(§1) Wild-type and LPA3 receptor-deficient male C57BL/6N mice (Oriental BioService, Inc., the week age at the start of the experiment: 13-week old) were used. Bleomycin hydrochloride (Nippon Kayaku Co., Ltd.) was dissolved in physiological saline (Otsuka Pharmaceutical Factory, Inc.) to prepare a 0.41-mg/mL solution. The bleomycin solution thus prepared was administered to each of the mice at a dosage volume of 75 μL through a transpulmonary route. For a normal group, physiological saline was administered at a dosage volume of 75 μL through a transpulmonary route.\nOn the day of first administration of bleomycin, the body weights were measured, and the mice were divided into groups equally in such a manner that a significant difference was not observed in the average values of the body weights among the groups. After the grouping, the administration of a test substance or the medium started, and the administration was performed repeatedly through an oral route at a frequency of two times/day from the day of the first administration of bleomycin to day 21. The volume of a solution to be administered was calculated on the basis of the body weight of each of the mice. […]"}, "[2]": {"system": "bleomycin-induced pulmonary fibrosis models produced using LPA3 receptor-deficient C57BL/6N mice", "experiment": "Bleomycin-induced pulmonary fibrosis model, LPA3 receptor-deficient C57BL/6N mice", "type": "in vivo, mouse", "conditions": "transpulmonary bleomycin, 3 mg/kg oral two times/day to day 21, vs medium-administered group", "method": "as §1\n(§2) On the day of first administration of bleomycin, the body weights were measured, and the mice were divided into groups equally in such a manner that a significant difference was not observed in the average values of the body weights among the groups. After the grouping, the administration of a test substance or the medium started, and the administration was performed repeatedly through an oral route at a frequency of two times/day from the day of the first administration of bleomycin to day 21. The volume of a solution to be administered was calculated on the basis of the body weight of each of the mice.\nOn the next day of the day of the final administration, each of the animals was subjected to the opening of the abdominal cavity under the anesthesia with a three types of mixed anesthetic agent (the intraperitoneal administration of 0.3 mg/10 mL/kg of medetomidine, 4 mg/10 mL/kg of midazolam, and 5 mg/10 mL/kg of butorphanol), and then the abdomen aorta in each of the animals was dissected to bleed to death. After the bleeding to death, the lung was excised, and the lung wet weight was measured. Subsequently, the lung was frozen. The frozen lung was homogenized, and then 11.2-N hydrochloric acid (200 μL) was added to a homogenate solution to hydrolyze the homogenate solution at about 120° C. for 34 hours. The content of hydroxyproline in the solution after the hydrolysis was measured using a hydroxyproline quantification kit (BioVision, Inc.)."}, "LPA2 receptor": {"target": "LPA2 receptor (Homo sapiens, UniProt Q9HBW0)", "sequence (Q9HBW0 whole entry)": "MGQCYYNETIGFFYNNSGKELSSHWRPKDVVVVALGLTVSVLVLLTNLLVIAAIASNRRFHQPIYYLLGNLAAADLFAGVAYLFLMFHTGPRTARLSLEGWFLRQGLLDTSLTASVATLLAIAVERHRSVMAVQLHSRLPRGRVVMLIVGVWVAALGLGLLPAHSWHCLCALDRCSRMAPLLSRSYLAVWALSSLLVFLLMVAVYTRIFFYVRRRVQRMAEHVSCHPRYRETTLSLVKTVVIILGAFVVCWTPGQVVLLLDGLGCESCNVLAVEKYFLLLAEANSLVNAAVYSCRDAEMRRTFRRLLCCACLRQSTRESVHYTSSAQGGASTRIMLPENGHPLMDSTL", "experiment": "LPA2 agonistic activity measurement in receptor-expressing cell strain", "type": "cell-based", "conditions": "cell strain stably expressing LPA2 receptor"}, "[3]": {"system": "bleomycin-induced pulmonary fibrosis models produced using male ICR mice", "experiment": "Bleomycin-induced pulmonary fibrosis model, male ICR mice", "type": "in vivo, mouse", "conditions": "bleomycin i.v. 5 days, 0.3, 1, 3 mg/kg oral two times/day to day 28, vs medium-administered group", "method": "Male ICR mice (Charles River Laboratories Japan, Inc., the week age at the start of experiment: 12-week old) were used. Bleomycin hydrochloride (Nippon Kayaku Co., Ltd.) was dissolved in physiological saline (Otsuka Pharmaceutical Factory, Inc.) to prepare a 3-mg/mL solution. The bleomycin solution thus prepared was administered into a tail vein of each of the mice at a dosage volume of 5 mL/kg at a frequency of 1 time/day for 5 days. For a normal group, physiological saline was administered into a tail vein at a dosage volume of 5 mL/kg at a frequency of 1 time/day for 5 days.\nas §2, with “through” for “through an”, “28.” for “21.”\nOn the next day of the day of the final administration, each of the animals was subjected to the opening of the abdominal cavity under the anesthesia with 2% isoflurane, and then the abdomen aorta in each of the mice was dissected to bleed to death. After the bleeding to death, the right lung was excised, and the lung wet weight was measured. Subsequently, the tissues of the right lung were dried with a dry-heat sterilizer, and the dry weight of the right lung was measured. […] The weight of the product after the neutralization was measured to calculate the amount (g) of the sample after the neutralization. […]\nA chloramine T reagent (1 mL) was added to an HYP standard solution (2 mL), the resultant mixture was left to stand for 20 minutes at room temperature, then a perchloric acid reagent (1 mL) was added to the solution, and then the resultant mixture was left to stand for 5 minutes at room temperature. A p-dimethylaminobenzaldehyde reagent (1 mL) was added to the solution, then the resultant mixture was warmed to 60° C. for 20 minutes, and then the absorbance of a supernatant produced by the filtration of the mixture through a filter was measured at 557 nm with a spectrophotometer to produce a standard curve.\nWith respect to each of the HYP content measurement samples (2 mL), the measurement of the absorbance was performed in the same manner as mentioned above, and then the HYP content (μg/mL) was calculated on the basis of the standard curve. […] The HYP amount in the right lung (μg/Lung) was calculated in accordance with the following equation. […]"}, "human LPA1 receptor": {"target": "human LPA1 receptor (Homo sapiens, UniProt Q92633)", "sequence (Q92633 whole entry)": "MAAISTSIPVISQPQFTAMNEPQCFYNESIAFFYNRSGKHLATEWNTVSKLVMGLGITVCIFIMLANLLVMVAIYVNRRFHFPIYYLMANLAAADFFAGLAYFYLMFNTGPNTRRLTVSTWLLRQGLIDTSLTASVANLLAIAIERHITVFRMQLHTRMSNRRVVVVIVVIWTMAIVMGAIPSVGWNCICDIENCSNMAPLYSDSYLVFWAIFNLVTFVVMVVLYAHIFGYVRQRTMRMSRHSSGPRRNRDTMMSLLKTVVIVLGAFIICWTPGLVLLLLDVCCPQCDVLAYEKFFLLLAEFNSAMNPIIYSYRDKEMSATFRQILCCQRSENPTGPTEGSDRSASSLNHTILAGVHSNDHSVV", "experiment": "LPA1 agonistic activity measurement in receptor-expressing cell strain", "type": "cell-based", "conditions": "cell strain stably expressing human LPA1 receptor"}}, "note": "pEC50: −log10 of the molar value. “Also recorded” adds a separate entry of the source.", "data": [{"compound": "Cc1ccc(Cn2c(C(=O)O)c(CNC3CCC3)c3ccccc32)cc1", "note": "[Compound I, 3-[(Cyclobutylamino)methyl]-1-(4-methylbenzyl)-1H-indol-2-carboxylic acid]", "values": [{"measurement": "lung weight", "setting": "[1]; FIG. 3", "result": "smaller compared with those in the medium-administered group"}, {"measurement": "HYP amount in the lung", "setting": "[1]; FIG. 4", "result": "smaller compared with those in the medium-administered group"}, {"measurement": "lung weight", "setting": "[2]; FIG. 3, 3 mg/kg", "result": "does not prevent the increase in the weight of the lung"}, {"measurement": "lung weight", "setting": "[2]; FIG. 3, listed as Example 1, 3 mg/kg", "result": "did not show significant difference compared with those in the medium-administered group"}, {"measurement": "HYP amount in the lung", "setting": "[2]; FIG. 4, 3 mg/kg", "result": "does not prevent the increase in the amount of hydroxyproline"}, {"measurement": "HYP amount in the lung", "setting": "[2]; FIG. 4, listed as Example 1, 3 mg/kg", "result": "did not show significant difference compared with those in the medium-administered group"}, {"measurement": "pEC50", "setting": "LPA2 receptor", "result": "< 5.00"}, {"measurement": "weight of the right lung", "setting": "[3]; FIG. 1", "result": "significantly prevented the increase; also recorded: prevents the increase in the weight of the lung"}, {"measurement": "weight of the right lung", "setting": "[3]; FIG. 1, listed as Example 1", "result": "lower compared with those in the medium-administered group"}, {"measurement": "HYP (hydroxyproline) amount in the right lung", "setting": "[3]; FIG. 2", "result": "significantly prevented the increase; also recorded: prevents the increase in the amount of hydroxyproline"}, {"measurement": "HYP (hydroxyproline) amount in the right lung", "setting": "[3]; FIG. 2, listed as Example 1", "result": "lower compared with those in the medium-administered group"}, {"measurement": "pEC50", "setting": "human LPA1 receptor", "result": "< 5.00"}]}]}
